Experimental data as given in patent publication US20080187508A1, “Treatment of Golmerular Basement Membrane Disease Involving Matrix Metalloproteinase-12” (BOYS TOWN NATIONAL RESEARCH HOSPITAL, priority 2004, published 2008).
Entries after “also recorded” stand apart in the source; their conditions may differ. Where a name gives a salt, the structure may show the parent alone. Read-outs that look alike come from different tables or passages of the source.

Columns and labels:
Alport mice = experiment: proteinuria by gel electrophoresis of urine of treated Alport mice; type: in vivo, mouse; conditions: for proteinuria: Alport mice treated from 4 to 7 weeks of age, MMI-270 50 μg/g I.P.; for progression of proteinuria: Alport mice treated from 6 to 7 weeks of age (advanced disease)
Description: Proteinuria was analyzed by gel electrophoresis. (A) One half microliter of urine from control mice (lane 2), MMI 270-treated normal control mice (lane 3), MMI 270-treated Alport mice (injected […] with 50 μg/g of NMI 270) (lane 4), and untreated Alport mice (lane 5) was fractionated on a 10% PAGE gel, stained with Coomassie blue, and destained. Molecular weight markers are shown in lane 1. […] Urine was collected and analyzed as in (A). Lane 1, 6 week old control; lane 2, 6 week old Alport; lane 3, 7 week old control; lanes 4 and 5, 7 week old Alport; lanes 6 and 7, 7 week old Alport treated with MMI-270 from 6 to 7 weeks of age. Molecular weight markers are shown in lane 1. The Alport mouse model has been described (Cosgrove et al. (1996) Genes Dev. 10, 2981-2992). The control mice used were normal for both collagen α3(IV) alleles, and are a product of double heterozygote crosses for the Alport mutation. The use of animals in this study was performed in accordance with an approved institutional IACUC protocol. Extreme care was taken to minimize pain and discomfort suffered by the mice. MMP inhibitors were administered between 4 and 7 weeks of age. All drugs were freshly prepared prior to administration. BAY 129566 was emulsified in suspension with 0.5% carboxymethyl cellulose and 4 mg given once a day by oral gavage. MMI-270 was solubilized in 0.9% saline and administered by I.P. injection (50 μg/g body weight) once a day. To assess the effect of these two compounds on Alport renal disease progression, Alport mice were administered either MMI 270 or BAY 129566 from 4 to 7 weeks of age. The animals were transcardially perfused with PBS and the kidneys harvested. Cryosections were analyzed by immunofluorescence microscopy to assess for the degree of glomerular and tubulointerstitial damage using antibodies specific for collagen IV α1 and α2 chains, and fibronectin.

MMP-3 = MMP-3 (Homo sapiens, UniProt P08254); conditions: hydrochloride monohydrate; cited from earlier work
Chain of MMP-3 (P08254 100-477, species assumed): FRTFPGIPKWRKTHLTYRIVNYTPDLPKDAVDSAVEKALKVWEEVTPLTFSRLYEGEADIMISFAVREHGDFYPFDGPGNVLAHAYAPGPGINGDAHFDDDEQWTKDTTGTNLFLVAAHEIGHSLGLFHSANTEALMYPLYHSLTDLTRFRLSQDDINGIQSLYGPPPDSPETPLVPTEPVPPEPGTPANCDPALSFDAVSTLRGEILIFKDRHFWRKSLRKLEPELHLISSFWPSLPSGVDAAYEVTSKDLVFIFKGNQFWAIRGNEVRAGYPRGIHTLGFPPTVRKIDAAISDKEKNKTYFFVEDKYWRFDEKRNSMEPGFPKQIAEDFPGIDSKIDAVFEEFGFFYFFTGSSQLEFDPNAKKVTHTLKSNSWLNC

MMP-9 = MMP-9 (Homo sapiens, UniProt P14780); conditions: hydrochloride monohydrate; cited from earlier work
Chain of MMP-9 (P14780 94-707, species assumed): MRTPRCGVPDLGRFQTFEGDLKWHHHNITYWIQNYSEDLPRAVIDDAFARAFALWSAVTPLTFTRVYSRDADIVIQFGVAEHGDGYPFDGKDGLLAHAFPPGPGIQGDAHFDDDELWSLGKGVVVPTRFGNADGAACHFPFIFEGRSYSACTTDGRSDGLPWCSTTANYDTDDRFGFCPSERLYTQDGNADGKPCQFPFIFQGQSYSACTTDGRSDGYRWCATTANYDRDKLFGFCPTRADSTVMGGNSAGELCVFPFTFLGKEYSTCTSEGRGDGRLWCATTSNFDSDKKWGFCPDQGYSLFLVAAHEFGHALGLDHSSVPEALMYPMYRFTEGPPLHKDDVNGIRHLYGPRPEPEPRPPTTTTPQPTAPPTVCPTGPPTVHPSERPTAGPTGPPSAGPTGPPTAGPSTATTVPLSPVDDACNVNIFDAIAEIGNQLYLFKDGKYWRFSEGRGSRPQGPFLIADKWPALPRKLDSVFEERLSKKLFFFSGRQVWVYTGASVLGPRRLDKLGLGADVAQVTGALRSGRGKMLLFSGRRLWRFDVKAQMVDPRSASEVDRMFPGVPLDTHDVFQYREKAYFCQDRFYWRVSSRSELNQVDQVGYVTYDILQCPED

MMP-12 = MMP-12 (Homo sapiens, UniProt P39900); conditions: cited from earlier work
Chain of MMP-12 (P39900 106-470, species assumed): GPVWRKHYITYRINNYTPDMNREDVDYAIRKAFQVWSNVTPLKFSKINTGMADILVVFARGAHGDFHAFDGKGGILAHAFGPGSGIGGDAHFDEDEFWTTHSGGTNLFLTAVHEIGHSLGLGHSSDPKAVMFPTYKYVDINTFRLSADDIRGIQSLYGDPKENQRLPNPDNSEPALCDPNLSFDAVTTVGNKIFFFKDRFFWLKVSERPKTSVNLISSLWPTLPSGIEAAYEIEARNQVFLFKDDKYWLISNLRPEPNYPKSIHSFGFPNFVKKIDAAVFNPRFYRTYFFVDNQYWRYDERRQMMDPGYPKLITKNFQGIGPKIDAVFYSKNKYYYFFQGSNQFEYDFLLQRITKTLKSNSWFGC

wide range of MMPs = conditions: in vitro; cited from earlier work
[1] = listed as NMI 270, hydrochloride monohydrate

**Q.** For `COc1ccc(S(=O)(=O)N(Cc2cccnc2)[C@@H](C(=O)NO)C(C)C)cc1` [MMI 270, N-hydroxy-2(R)-[(4-methoxysulfonyl)(3-picolyl)amino]-3-methylbutaneamide hydrochloride monohydrate], which proteinuria (Alport mice; hydrochloride monohydrate) is on record?
**A.** arrests (and may reverse) progressive loss of glomerular function

**Q.** What about the proteinuria (Alport mice; listed as MMI-270, hydrochloride monohydrate) of the same molecule?
**A.** dramatic reduction

**Q.** What about the proteinuria (Alport mice; [1]) of the same molecule?
**A.** drastically reduced

**Q.** And the progression of proteinuria (Alport mice; hydrochloride monohydrate)?
**A.** arrests the progressive increase in proteinuria; also recorded: arrested

**Q.** What about the progression of proteinuria (Alport mice; [1]) of the same molecule?
**A.** arrested

**Q.** And the “MMP inhibitory effect, MMP-3” value (MMP-3)?
**A.** inhibits

**Q.** What about the “MMP inhibitory effect, MMP-9” value (MMP-9) of the same molecule?
**A.** inhibits

**Q.** And the “MMP inhibitory effect, MMP-12” value (MMP-12; hydrochloride monohydrate)?
**A.** inhibits

**Q.** What about the “MMP inhibitory effect, MMP-12” value (MMP-12; [1]) of the same molecule?
**A.** inhibits

**Q.** What about the “concentrations inhibiting activity of a wide range of MMPs” value (wide range of MMPs) of the same molecule?
**A.** nM concentrations
